Measured values reported in article PMC12846378 (Viruses, 2026).
Several values for one entry are separate records, joined by “and”; a condition that tells them apart may be missing. Identical values can stand only once. Like-named read-outs stand apart in the source and are kept apart here.

Experiments:
rJUNV/GFP-P2A-NP [1] = test: organism not typed; format: cell-based
LCMV Z = format: cell-based
rLCMV/GFP-P2A-NP [2] = format: cell-based
HEK293T cells [3] = test system: HEK293T cells
A549 cells [4] = test system: A549 cells
rJUNV/GFP-P2A-NP [5] = test: organism not typed; format: cell-based; remark: listed apart in the source
HEK293T cells [6] = test system: HEK293T cells; remark: listed apart in the source
LCMV vRNP = LCMV vRNP (Mammarenavirus choriomeningitidis (LCMV), UniProt P14240); format: cell-based
rLCMV/GFP-P2A-NP [7] = format: cell-based; remark: listed apart in the source
A549 cells [8] = test system: A549 cells; remark: listed apart in the source
A549 cells [9] = test system: A549 cells; remark: listed apart in the source
LASV vRNP = format: cell-based
rLCMV/GFP-P2A-NP [10] = format: cell-based; remark: listed apart in the source
LCMV NP RNA = format: cell-based
in vitro = settings: African green monkey
ISG15 = format: cell-based
MX1 = format: cell-based
rLCMV/GFP-P2A-NP [11] = format: cell-based; remark: listed apart in the source
rLCMV/GFP-P2A-NP [12] = test: organism not typed; format: cell-based

CNC1=Nc2ccc(Cl)cc2C(c2ccc[nH]2)=NC1 [RO, Ro-24-7429]
antiviral activity against JUNV (rJUNV/GFP-P2A-NP [1]): less efficient | effect on Z budding activity (LCMV Z): did not affect | CC50 (Vero E6 cells): > 30000 nM | reduction in infectivity (GFP signal) (rLCMV/GFP-P2A-NP [2]): ≥ 80% | CC50 (HEK293T cells [3]): > 1000 nM | CC50 (A549 cells [4]): > 20000 nM | antiviral activity against JUNV (rJUNV/GFP-P2A-NP [5]): less efficient | EC50 (rJUNV/GFP-P2A-NP [5]; read-out: EC50): 15300 nM | CC50 (HEK293T cells [6]): > 20000 nM | inhibition of LCMV MG activity (LCMV vRNP): significantly less efficient | production of infectious virus (titers in CCS) (rLCMV/GFP-P2A-NP [7]): reduced efficacy at 1 µM compared to 5 µM | reduction in cell viability / cytotoxicity (A549 cells [8]): ≤ 20% | CC50 (A549 cells [9]): > 30000 nM | inhibition of LASV MG activity (LASV vRNP): significantly less efficient | EC50 (rLCMV/GFP-P2A-NP [10]; read-out: EC50): 889 nM and 890 nM | effect on virus RNA replication and transcription (LCMV NP RNA): inhibited to a similar degree both virus replication and transcription

O=C(/C=C\n1cnc(-c2cc(C(F)(F)F)cc(C(F)(F)F)c2)n1)NNc1cnccn1 [SE, Selinexor]
production of infectious virus (titers in CCS) (rLCMV/GFP-P2A-NP [7]): potent inhibitory effect on LCMV multiplication

O=C(/C=C\n1cnc(-c2cc(C(F)(F)F)cc(C(F)(F)F)c2)n1)NNc1ccccn1 [VE, verdinexor]
CC50 (in vitro): > 30000 nM | expression level of ISG15 (ISG15): reduced expression levels | antiviral activity against JUNV (rJUNV/GFP-P2A-NP [1]): potent antiviral activity | EC50 (rJUNV/GFP-P2A-NP [1]; A549): 36 nM | expression level of MX1 (MX1): reduced expression levels | effect on Z budding activity (LCMV Z): significant inhibitory effect | reduction in infectivity (GFP signal) (rLCMV/GFP-P2A-NP [2]): ≥ 80% | effect on LCMV multiplication in MAVS-KO A549 cells (rLCMV/GFP-P2A-NP [11]): strong dose-dependent inhibitory effect | inhibition at 0.3334 µM (rLCMV/GFP-P2A-NP [12]): 77.6% | inhibition at 1 µM (rLCMV/GFP-P2A-NP [12]): 97.05 ± 0.41% | EC50 (rJUNV/GFP-P2A-NP [5]): 240 nM | antiviral activity against JUNV (rJUNV/GFP-P2A-NP [5]): potent antiviral activity | EC50 (rJUNV/GFP-P2A-NP [5]; Vero C1008): 239 nM | inhibition of LCMV MG activity (LCMV vRNP): potently inhibited | reduction in virus peak titers (rLCMV/GFP-P2A-NP [7]): ~2 log | reduction in cell viability / cytotoxicity (A549 cells [8]; human): ≤ 20% | inhibition of LASV MG activity (LASV vRNP): potently inhibited | EC50 (rLCMV/GFP-P2A-NP [10]): 70 nM | effect on virus RNA replication and transcription (LCMV NP RNA): inhibited to a similar degree both virus replication and transcription
